“Also recorded” adds a separate entry of the source. Like-named read-outs stand apart in the source and are kept apart here.
Assays:
[1] = tested on: HBV DNA replication in HepAD38 cells; assay: Inhibition of intracellular HBV DNA replication in HepAD38 cells (PCR); type: cell-based; conditions: Hepatitis B virus
Description: (§1) The antiviral activity of Compound I and Compound II towards HBV was tested in various cell lines (HepAD38, HepDE19 and HepDES19). The HepAD38 cell line is derived from the HepG2 cell line and engineered to stably maintain HBV (see Ladner et al., Antimicrobial Agents and Chemotherapy, 1997, 41, 1715-1720, which is incorporated herein by reference in its entirety). DE19 and DES19 cell lines are human hepatoma derived cell lines (see Guo et al. J. Virol 2007, 81, 12472-84, which is incorporated herein by reference in its entirety). Active HBV replication in the cells was suppressed by inclusion of tetracycline in the cell culture medium, which binds to a tetracycline-sensitive promoter, and induced by removal of tetracycline. HBV replication was quantified by measuring the amount of HBV DNA in the cells.
(§2) Compound I and Compound II were applied to induced cells (i.e., cells without tetracycline), either alone or in combination at various concentrations. Next, intracellular DNA was isolated and HBV DNA was measured by polymerase chain reaction (PCR). The percent inhibition of HBV DNA was examined over the concentration ranges of 0-320 nM for Compound I and 0-640 nM for Compound II. Concentration versus effect curves were constructed for both drugs (FIGS. 1A and 1B, 2A and 2B, and 3A and 3B). […] See FIGS. 1B, 2B, and 3B (curves where [Compound II]=0).
(§3) The level of reduction in intracellular HBV DNA by the various combinations of Compound I and II as plotted in FIGS. 1 A and 1B, 2A and 2B, and 3A and 3B, was analyzed using the Shipman-Prichard synergy scoring program (MacSynergy™ II program, Prichard et al. Antiviral Research 1990), wherein the experimentally observed effect of each combination is compared to the theoretical, additive inhibition. The comparison is used to determine combination scores (effect volumes) that represent either synergistic (positive scores) or antagonistic (negative scores) effects. All the positive and negative scores are summed to calculate overall synergy and antagonism scores that reflect the entire concentration spectrum of the two drugs. The magnitude of the scores reflect the degree of synergism/antagonism and the likelihood of the synergistic/antagonistic activities being important in vivo, according to the following four categories: (1) Synergy/Antagonism Volume=0-25 (log volume <2): insignificant synergy/antagonism (i.e., only additive effects); (2) Synergy/Antagonism Volume=25-50 (log volume 2-5): minor but significant amount of synergy/antagonism; (3) Synergy/Antagonism Volume=50-100 (log volume 5-9): moderate synergy/antagonism that may be important in vivo; (4) Synergy/Antagonism Volume >100 (log volume >9): stronger synergy/antagonism that is probably important in vivo. IC50 values for Compound I in combination with different concentrations of Compound II, and Compound II in combination with different concentrations of Compound I, are presented in Tables 6 and 7, respectively.

[2] = tested on: HBV DNA replication in DE19 cells; assay: Inhibition of intracellular HBV DNA replication in HepDE19 cells (PCR); type: cell-based; conditions: Hepatitis B virus
Description: as §1, §2, §3

[3] = tested on: HBV DNA replication in DES19 cells; assay: Inhibition of intracellular HBV DNA replication in HepDES19 cells (PCR); type: cell-based; conditions: Hepatitis B virus
Description: as §1, §2, §3

[4] = tested on: HBV DNA replication in AD38, DES19 and DE19 cells; assay: In vitro combination study, statements covering AD38, DES19 and DE19 cells together; type: cell-based, hepatitis B virus; conditions: Compound I 5-320 nM and/or Compound II 10-640 nM; FIGS. 1-3
Description: The antiviral activity of Compound I and Compound II towards HBV was tested in various cell lines (HepAD38, HepDE19 and HepDES19). […] Active HBV replication in the cells was suppressed by inclusion of tetracycline in the cell culture medium, which binds to a tetracycline-sensitive promoter, and induced by removal of tetracycline. HBV replication was quantified by measuring the amount of HBV DNA in the cells.
The comparison is used to determine combination scores (effect volumes) that represent either synergistic (positive scores) or antagonistic (negative scores) effects. All the positive and negative scores are summed to calculate overall synergy and antagonism scores that reflect the entire concentration spectrum of the two drugs. […]

HBV = assay: Anti-HBV effects in the HBV transgenic mouse model; type: in vivo, HBV transgenic mice; conditions: for serum HBsAg / liver HBsAg / serum HBV DNA / serum HBeAg: oral, 16 days; for serum HBsAg: FIG. 7; for liver HBsAg / serum HBV DNA / serum HBeAg: alone or in combination; for liver HBsAg: FIG. 8; for serum HBV DNA: FIG. 9; for serum HBeAg: FIG. 10; for liver HBV DNA (copies per mg liver): once-daily oral gavage 16 days, Compound I 10 or 50, Compound II 5 or 10 mg/kg/day, combination 10+5, FIG. 6
Description: (§4) Compound I and Compound II were administered by once-daily oral gavage for 16 days to HBV transgenic mice which replicated HBV from a 1.3× overlength HBV genome integrated into the mouse genome. Expression occurred mostly in hepatocytes.
Treatment Groups (n=8/Group):
After 16 days of dosing, livers and serum were harvested and the following parameters were measured: a) HBV DNA by quantitative PCR (liver and serum) b) HBsAg by ELISA (liver and serum) c) HBeAg by ELISA (serum)

[5] = Compound I concentration in serum by liquid chromatography-mass spectrometry; type: in vivo, HBV transgenic mice; conditions: 3-hr post-dose on Day 16 of dosing; FIG. 11
Description: as §4
Compound I Concentrations were Measured by Liquid Chromatography-Mass Spectrometry (Serum)

CCCCCCCCCCCCCCCCOCCCOP(=O)(O)CO[C@H](C)Cn1cnc2c(N)ncnc21 [Compound II, 3-(hexadecyloxy)propyl hydrogen ((R)-1-(6-amino-9H-purin 9-yl)propan-2-yloxy)methylphosphonate]
IC50 ([1]; HePAD38, read-out: IC50 for Compound II, AD38 cells, Compound I 0 nM): 248 nM | IC50 ([1]; HePAD38, read-out: IC50 for Compound II, AD38 cells, Compound I 5 nM): 259 nM | IC50 ([1]; HePAD38, read-out: IC50 for Compound II, AD38 cells, Compound I 10 nM): 255 nM | IC50 ([1]; HePAD38, read-out: IC50 for Compound II, AD38 cells, Compound I 20 nM): 232 nM | IC50 ([1]; HePAD38, read-out: IC50 for Compound II, AD38 cells, Compound I 40 nM): 232 nM | IC50 ([1]; HePAD38, read-out: IC50 for Compound II, AD38 cells, Compound I 80 nM): 229 nM | IC50 ([1]; HePAD38, read-out: IC50 for Compound II, AD38 cells, Compound I 160 nM): 104 nM | IC50 ([1]; HePAD38, read-out: IC50 for Compound II, AD38 cells, Compound I 320 nM): 99.7 nM | IC50 ([2]; HepDE19, read-out: IC50 for Compound II, DE19 cells, Compound I 0 nM): 253 nM | IC50 ([2]; HepDE19, read-out: IC50 for Compound II, DE19 cells, Compound I 5 nM): 270 nM | IC50 ([2]; HepDE19, read-out: IC50 for Compound II, DE19 cells, Compound I 10 nM): 255 nM | IC50 ([2]; HepDE19, read-out: IC50 for Compound II, DE19 cells, Compound I 20 nM): 213 nM | IC50 ([2]; HepDE19, read-out: IC50 for Compound II, DE19 cells, Compound I 40 nM): 237 nM | IC50 ([2]; HepDE19, read-out: IC50 for Compound II, DE19 cells, Compound I 80 nM): 226 nM | IC50 ([2]; HepDE19, read-out: IC50 for Compound II, DE19 cells, Compound I 160 nM): 83.9 nM | IC50 ([2]; HepDE19, read-out: IC50 for Compound II, DE19 cells, Compound I 320 nM): 110 nM | IC50 ([3]; HepDES19, read-out: IC50 for Compound II, DES19 cells, Compound I 0 nM): 252 nM | IC50 ([3]; HepDES19, read-out: IC50 for Compound II, DES19 cells, Compound I 5 nM): 237 nM | IC50 ([3]; HepDES19, read-out: IC50 for Compound II, DES19 cells, Compound I 10 nM): 228 nM | IC50 ([3]; HepDES19, read-out: IC50 for Compound II, DES19 cells, Compound I 20 nM): 180 nM | IC50 ([3]; HepDES19, read-out: IC50 for Compound II, DES19 cells, Compound I 40 nM): 190 nM | IC50 ([3]; HepDES19, read-out: IC50 for Compound II, DES19 cells, Compound I 80 nM): 188 nM | IC50 ([3]; HepDES19, read-out: IC50 for Compound II, DES19 cells, Compound I 160 nM): 86.6 nM | IC50 ([3]; HepDES19, read-out: IC50 for Compound II, DES19 cells, Compound I 320 nM): 63.2 nM | intracellular HBV DNA compared to induced cells in the absence of the drug [4]: reduced intracellular HBV DNA in a concentration-dependent manner | serum HBsAg (HBV; Compound II alone (5 or 10 mg/kg/day) or with low-dose Compound I (10 mg/kg/day)): did not affect serum HBsAg | liver HBsAg (HBV): did not affect | serum HBV DNA (HBV): did not affect | serum HBeAg (HBV): did not affect | liver HBV DNA (copies per mg liver) (HBV): decreased liver HBV DNA; also recorded: highly efficacious

CC[C@@H]1NC(=O)C([C@H](O)[C@H](C)CCCCCCNC(C)=O)N(C)C(=O)[C@@H](C(C)C)N(C)C(=O)[C@H](CC(C)C)N(C)C(=O)[C@H](CC(C)C)N(C)C(=O)[C@H](C)NC(=O)[C@H](C)NC(=O)[C@@H](CC(C)C)N(C)C(=O)[C@H](C(C)C)NC(=O)[C@H](CC(C)C)N(C)C(=O)[C@H](C)N(C)C1=O (stereo partly shown) [Compound I]
IC50 ([1]; HePAD38, read-out: IC50 for Compound I, AD38 cells, Compound II 0 nM): 32.1 nM | IC50 ([1]; HePAD38, read-out: IC50 for Compound I, AD38 cells, Compound II 10 nM): 31 nM | IC50 ([1]; HePAD38, read-out: IC50 for Compound I, AD38 cells, Compound II 20 nM): 26.5 nM | IC50 ([1]; HePAD38, read-out: IC50 for Compound I, AD38 cells, Compound II 40 nM): 29.9 nM | IC50 ([1]; HePAD38, read-out: IC50 for Compound I, AD38 cells, Compound II 80 nM): 29.5 nM | IC50 ([1]; HePAD38, read-out: IC50 for Compound I, AD38 cells, Compound II 160 nM): 34.5 nM | IC50 ([1]; HePAD38, read-out: IC50 for Compound I, AD38 cells, Compound II 320 nM): 38.2 nM | IC50 ([1]; HePAD38, read-out: IC50 for Compound I, AD38 cells, Compound II 640 nM): 21 nM | IC50 ([2]; HepDE19, read-out: IC50 for Compound I, DE19 cells, Compound II 0 nM): 32.9 nM | IC50 ([2]; HepDE19, read-out: IC50 for Compound I, DE19 cells, Compound II 10 nM): 29.5 nM | IC50 ([2]; HepDE19, read-out: IC50 for Compound I, DE19 cells, Compound II 20 nM): 26 nM | IC50 ([2]; HepDE19, read-out: IC50 for Compound I, DE19 cells, Compound II 40 nM): 27.3 nM | IC50 ([2]; HepDE19, read-out: IC50 for Compound I, DE19 cells, Compound II 80 nM): 27.8 nM | IC50 ([2]; HepDE19, read-out: IC50 for Compound I, DE19 cells, Compound II 160 nM): 33.6 nM | IC50 ([2]; HepDE19, read-out: IC50 for Compound I, DE19 cells, Compound II 320 nM): 37.5 nM | IC50 ([2]; HepDE19, read-out: IC50 for Compound I, DE19 cells, Compound II 640 nM): 23.3 nM | IC50 ([3]; HepDES19, read-out: IC50 for Compound I, DES19 cells, Compound II 0 nM): 33.4 nM | IC50 ([3]; HepDES19, read-out: IC50 for Compound I, DES19 cells, Compound II 10 nM): 29.1 nM | IC50 ([3]; HepDES19, read-out: IC50 for Compound I, DES19 cells, Compound II 20 nM): 27.2 nM | IC50 ([3]; HepDES19, read-out: IC50 for Compound I, DES19 cells, Compound II 40 nM): 26.4 nM | IC50 ([3]; HepDES19, read-out: IC50 for Compound I, DES19 cells, Compound II 80 nM): 27.8 nM | IC50 ([3]; HepDES19, read-out: IC50 for Compound I, DES19 cells, Compound II 160 nM): 34.7 nM | IC50 ([3]; HepDES19, read-out: IC50 for Compound I, DES19 cells, Compound II 320 nM): 32.4 nM | IC50 ([3]; HepDES19, read-out: IC50 for Compound I, DES19 cells, Compound II 640 nM): 22.9 nM | intracellular HBV DNA compared to induced cells in the absence of the drug [4]: reduced intracellular HBV DNA in a concentration-dependent manner | liver HBsAg (HBV): did not affect | serum HBV DNA (HBV): did not affect | serum HBeAg (HBV): did not affect | serum HBsAg (HBV; high-dose Compound I (50 mg/kg/day)): decreased serum HBsAg; also recorded: able to lower serum HBsAg levels | liver HBV DNA (copies per mg liver) (HBV): decreased liver HBV DNA; also recorded: highly efficacious | serum Compound I concentration [5]: correlated with the effects of Compound I on HBV DNA and HBsAg
